Test results: paper PMC7376037, “Recombinant expression, purification and PEGylation of Paneth cell peptide (cryptdin-2) with value added attributes against Staphylococcus aureus” (Scientific Reports, 2020)
In brackets after ≈: the same amount, converted by molar mass. Read-outs that look alike come from different tables or passages of the source. Bridge positions count the residues as written; N and C are the ends. Peptide text beside a SMILES is read from it.

Key:
[1] = Serum stability (antimicrobial activity after incubation in mice sera); assay type: in vitro ADME; settings: for reduction of antibacterial activity after 3 h incubation with mice sera: peptide at its MIC, 50% mice serum, 37 °C, read-out micro broth dilution against S. aureus, repeated thrice in triplicates
Procedure: The stability of purified peptide preparations in mice sera was evaluated as described previously[15] with some modifications. Briefly, 80 µL of 50% serum was added to each well of 96-well plates followed by addition of 10 µL of bacterial suspension. The total CFU/mL value was adjusted to be identical in all the samples. Each peptide preparation (10 μL) was added to different wells and incubated at 37 °C for 0, 3, and 6 h respectively. The antimicrobial activities were assessed by performing micro broth dilution assay as described above for determination of MIC against S. aureus. The sera of mice were confirmed for absence of any intrinsic antimicrobial activity prior to performing the test.

Staphylococcus aureus [2] = test: Radial diffusion (agar well diffusion) assay; assay type: cell-based, Staphylococcus aureus (ATCC 9144); settings: peptide 100 µg/well, overnight 37 °C, S. aureus
Procedure: Antibacterial activity of all the cryptdin preparations was evaluated by performing radial diffusion assay. […] Following the addition of 20 μL aliquots of the cryptdin-2 preparations along with control sample (PBS) into a series of wells made in the gel, the plates were incubated overnight at 37 °C. The samples were examined for zone of clearance around the wells indicating inhibition of bacterial growth.

RAW 264.7 cell lines = test: Cell cytotoxicity assay (AlamarBlue); assay type: cell-based, murine; settings: 24 h
Procedure: The cytotoxicity of recombinant peptide variants towards RAW 264.7 cell lines was assessed using AlamarBlue (Resazurin), a cell metabolic activity reagent (Sigma)[40]. The log phase cells diluted (2 × 10^5/well) in Dulbecco's Modified Eagle Medium (DMEM) containing 10% fetal bovine serum (FBS) were cultured in 96-well microtiter plates and incubated for 12 h under 5% CO2 conditions at 37 °C. […] Following this, 0.02% Alamar blue reagent was added to the cells and incubated for 8 h. Fluorescence was measured with excitation wavelength at 545 nm and emission wavelength at 590 nm. The percent difference between treated and un-treated cells was calculated to determine percent cytotoxicity.

Staphylococcus aureus [3] = assay type: cell-based; settings: for MIC in combination, Peptides: peptide concentration in combination with gentamicin, checkerboard, S. aureus
Procedure: To investigate the interactive effect of these recombinant peptides, a checkerboard assay[41] was performed using a clinically prescribed antibiotic (gentamicin) as the other antibacterial agent. The assay employs the same methodology followed for determination of the MIC as described above. MIC values of peptide and gentamicin were used in this assay in order to calculate the FIC values. All the three peptide variants and gentamicin were tried in different ratios to evaluate interaction of the agents in combination against S. aureus. The same was determined on the basis of the FIC index, wherein an index of ≤ 0.5 indicated a synergistic effect and an index > 0.5 and ≤ 2 indicated an additive or indifferent nature of interaction respectively and lastly, the interaction was confirmed to be antagonistic when the index was > 2.0.
FIC index is expressed as: FIC Index=A1/A+B1/B where A1 and B1 are the respective concentrations of gentamicin and peptide producing the combined MICs, while A and B are the MICs of the individual agents.

Staphylococcus aureus [4] = test: microbe, parasite or virus in culture; assay type: cell-based, Staphylococcus aureus (ATCC 9144)
Procedure: To determine MIC values of the peptide preparations, micro broth dilution assay was performed. Briefly, S. aureus cells were grown to mid-exponential phase and diluted to a concentration of approximately 10^7 CFU/mL. Different concentrations of AMP preparations were separately added to wells containing bacterial suspension (approximately 10^6 CFU/mL) in sterile 96-well flat-bottom plate. After incubation at 37 °C, cell growth inhibition was assessed by measuring the absorbance at 595 nm on microplate reader (BioTek). MIC was recorded as the lowest concentration of the peptide preparation at which no visible growth was observed.

[5] = cited from earlier work
From the text: However, lesser adverse effect was observed on cell membrane when treated with the PEGylated peptide. These findings correlated well with the increased MIC of the peptide as observed above. It is highly probable that site-specific mutation followed by PEG-conjugat ...

Compound	MIC after incubation with serum, 0 h [1]	MIC after incubation with serum, 3 h [1]	MIC after incubation with serum, 6 h [1]	reduction of antibacterial activity after 3 h incubation with mice sera [1]	antimicrobial activity, zone of growth inhibition (Staphylococcus aureus [2])	cell viability (RAW 264.7 cell lines)	MIC in combination, Peptides (Staphylococcus aureus [3])	also measured
CSCC[C@@H]1NC(=O)[C@H](CCCNC(=N)N)NC(=O)[C@H](CS)NC(=O)[C@H](CCCNC(=N)N)NC(=O)[C@H](CCCNC(=N)N)NC(=O)[C@H](CCCCN)NC(=O)[C@@H]2CSSC[C@@H]3NC(=O)[C@H](CC(C)C)NC(=O)[C@H]([C@@H](C)O)NC(=O)[C@H](Cc4ccc(O)cc4)NC(=O)[C@H](CCSC)NC(=O)[C@H](CC(C)C)NC(=O)[C@H](Cc4c[nH]cn4)NC(=O)CNC(=O)[C@H](CCCCN)NC(=O)[C@H](CCCNC(=N)N)NC(=O)[C@H](CSSC[C@H](NC(=O)[C@H](Cc4ccc(O)cc4)NC(=O)[C@@H](NC(=O)[C@@H](NC(=O)[C@H](CC(C)C)NC(=O)[C@H](CC(=O)O)NC(=O)[C@H](CCCNC(=N)N)NC(=O)[C@@H](N)CC(C)C)C(C)C)CSSC[C@@H](C(=O)N[C@@H](CCCNC(=N)N)C(=O)O)NC3=O)C(=O)N[C@@H](CCCNC(=N)N)C(=O)N[C@@H]([C@@H](C)O)C(=O)N[C@@H](CCCNC(=N)N)C(=O)NCC(=O)N2)NC(=O)[C@H]([C@@H](C)O)NC(=O)CNC(=O)[C@H](CC(N)=O)NC1=O [E18C cryptdin-2] (H-LRDLVCYCRTRGCKRRCRMNGTCRKGHLMYTLCCR-OH; disulfide 6-34, 8-23, 13-33)	20 µg/mL	40 µg/mL	60 µg/mL	50%	potent antimicrobial activity	~65%	2.5 µg/mL	FIC indices (Staphylococcus aureus [3]): 0.375
CNC(C)C1CCC(N)C(OC2C(N)CC(N)C(OC3OCC(C)(O)C(NC)C3O)C2O)O1 (stereo not shown) [Gentamicin, gentamicin, reference compound]								MIC (Staphylococcus aureus [4]; agent alone against Staphylococcus aureus, Table 1, read-out: MIC): 0.097 µg/mL (≈ 0.203 µM)
CSCC[C@@H]1NC(=O)[C@H](CCCNC(=N)N)NC(=O)[C@H](CCC(=O)O)NC(=O)[C@H](CCCNC(=N)N)NC(=O)[C@H](CCCNC(=N)N)NC(=O)[C@H](CCCCN)NC(=O)[C@@H]2CSSC[C@@H]3NC(=O)[C@H](CC(C)C)NC(=O)[C@H]([C@@H](C)O)NC(=O)[C@H](Cc4ccc(O)cc4)NC(=O)[C@H](CCSC)NC(=O)[C@H](CC(C)C)NC(=O)[C@H](Cc4c[nH]cn4)NC(=O)CNC(=O)[C@H](CCCCN)NC(=O)[C@H](CCCNC(=N)N)NC(=O)[C@H](CSSC[C@H](NC(=O)[C@H](Cc4ccc(O)cc4)NC(=O)[C@@H](NC(=O)[C@@H](NC(=O)[C@H](CC(C)C)NC(=O)[C@H](CC(=O)O)NC(=O)[C@H](CCCNC(=N)N)NC(=O)[C@@H](N)CC(C)C)C(C)C)CSSC[C@@H](C(=O)N[C@@H](CCCNC(=N)N)C(=O)O)NC3=O)C(=O)N[C@@H](CCCNC(=N)N)C(=O)N[C@@H]([C@@H](C)O)C(=O)N[C@@H](CCCNC(=N)N)C(=O)NCC(=O)N2)NC(=O)[C@H]([C@@H](C)O)NC(=O)CNC(=O)[C@H](CC(N)=O)NC1=O [cryptdin-2] (H-LRDLVCYCRTRGCKRRERMNGTCRKGHLMYTLCCR-OH; disulfide 6-34, 8-23, 13-33)	20 µg/mL	40 µg/mL	70 µg/mL	50%	potent antimicrobial activity	approximately 70%	2.5 µg/mL	MIC (Staphylococcus aureus [4]): 20 µg/mL (≈ 4.71 µM)
magainin 2								decrease in antimicrobial activity after PEG conjugation ([5]; 5 kDa PEG at N-terminal end): fourfold
nisin								antimicrobial activity after PEGylation ([5]; PEGylation via amine group of the lysine side-chain): inactive conjugate
